Consider 10 molecules from PMC9609996, “SAR Study and Molecular Mechanism Investigation of Novel Naphthoquinone-furan-2-cyanoacryloyl Hybrids with Antitumor Activity” (Pharmaceutics, 2022).

Like-named read-outs stand apart in the source and are kept apart here. A value given as a limit tells only on which side of the number the result lay.

Usually inhibition stands for the percentage by which the read-out fell short of the control. One may read the IC50 as the point on the concentration scale where inhibition reaches its midpoint.

In assay [1] the test system is HeLa. Put plainly: CCK-8 anti-proliferation assay, HeLa. The assay is classed as cell-based, human. The following applies: mean ± SD; for inhibition at 20 µM: read-out: Inhibition Rate (%) at 20 μM HeLa. As to the method:
(§1) Human cervical cancer HeLa, human prostate cancer PC3, human colonic carcinoma HCT116, human lung carcinoma A549, human breast cancer MDA-MB-231, mouse melanoma B16, human ovarian cancer SKOV3, human hepatoma Hep3B, and human liver L02 cells were purchased from the Cell Bank of Shanghai Institute of Biochemistry and Cell Biology, Chinese Academy of Sciences (Shanghai, China). The HeLa, A549, B16, PC3, MDA-MB-231, HCT116, and L02 cells were cultured in Dulbecco’s modified Eagle medium (DMEM, Gibco Inc.; Gaithersburg, MD, USA). All cultures were supplied with 10% fetal bovine serum (FBS; YHSM, Beijing, China), 100 IU/mL of penicillin, and 100 μg/mL of streptomycin, and cells were incubated at 37 °C in an atmosphere of 5% CO2.
(§2) A CCK-8 kit (MCE, USA) was used to perform a CCK-8 assay. Cells were plated and grown in the 96-well plates for the indicated period (48 h) in the incubator, followed by an incubation with the CCK-8 solutions for 1–4 h. Subsequently, the absorbance (450 nm) was measured by a microplate reader. The median inhibitory concentration (IC50) was determined from the dose–response curve. Experiments were performed in a triplicate.
(In general: Tetrazolium dyes change colour on reduction, which living cells bring about.)

For assay [2], the system named is PC3. The assay can be described thus: CCK-8 anti-proliferation assay, PC3. The assay is classed as cell-based, human. The following applies: mean ± SD; for inhibition at 20 µM: PC-3, 20 μM, read-out: Inhibition Rate (%) at 20 μM PC3. As to the method: as §1, §2
Assay [3] relates to A549. Put plainly: CCK-8 anti-proliferation assay, A549. The format is cell-based, human. The following applies: mean ± SD; for inhibition at 20 µM: A549, 20 μM, read-out: Inhibition Rate (%) at 20 μM A549. As to the method:
as §1, §2

Assay [4] relates to HCT116. The assay can be described thus: CCK-8 anti-proliferation assay, HCT116. The assay is classed as cell-based, human. The following applies: mean ± SD; for inhibition at 20 µM: HCT-116, 20 μM, read-out: Inhibition Rate (%) at 20 μM HCT116. The protocol: as §1, §2
The subject of assay [5] is four cancer cell lines (HeLa, PC3, A549, and HCT116). The assay can be described thus: CCK-8 inhibition rates over four cancer cell lines. The format is cell-based. The following applies: Homo sapiens. The protocol: First, the inhibition rates at 20 μM for all newly synthesized compounds were evaluated on four cancer cell lines (HeLa, PC3, A549, and HCT116) by a CCK-8 assay. […] A variety of aliphatic amine substituents were well tolerated (4e, 4f, 5c, and 8f).
as §1, §2

Assay [6] deals with MDA-MB-231. The assay can be described thus: CCK-8 anti-proliferation assay, MDA-MB-231. The format is cell-based, human. The following applies: Homo sapiens, MDA-MB-231, 48 h, mean ± SD. The protocol:
as §1, §2

Assay [7] deals with B16. Put plainly: CCK-8 anti-proliferation assay, B16. The format is cell-based. The following applies: Mus musculus, B16, 48 h, B16 mouse melanoma, mean ± SD. The protocol: as §1, §2
Assay [8] deals with SKOV3. Put plainly: CCK-8 anti-proliferation assay, SKOV3. The following applies: Homo sapiens, SK-OV-3, 48 h, mean ± SD. The format is cell-based. The protocol: as §1, §2
Assay [9] relates to Hep3B. Put plainly: CCK-8 anti-proliferation assay, Hep3B. The following applies: Homo sapiens, 48 h, mean ± SD. The format is cell-based, human. The protocol:
as §1, §2

Assay [10] deals with L02 cells. Put plainly: CCK-8 assay on normal cells, L02. The format is cell-based. The following applies: L02 human normal hepatocytes, 48 h, mean ± SD. The protocol:
as §1, §2

Assay [11] concerns various cancer cell lines. On the set-up: method as in PMID 23651330. The following applies: read-out: IC50 against various cancer cell lines; cited from earlier work.
Where [12] appears, read: one or two of the four cell lines, read-out: inhibition rates against one or two types of tumor cell lines.
[13] abbreviates: HeLa, PC3, A549, HCT116, CCK-8, read-out: inhibition rate, span over the four cancer cell lines.

For `COc1cc(-c2ccc(/C=C(\C#N)C(=O)NC3CC(C)(C)NC(C)(C)C3)o2)c(OC)c2ccccc12` [Compound 4e, (E)-2-cyano-3-(5-(1,4-dimethoxynaphthalen-2-yl)furan-2-yl)-N-(2,2,6,6-tetramethylpiperidin-4-yl)acrylamide], the inhibition at 20 µM is 59.1 ± 0.21% in assay [1] (Homo sapiens, 20 μM); 15.8 ± 0.33% in [2] (Homo sapiens); 59.49 ± 0.34% in [3] (Homo sapiens); 40.53 ± 0.03% in assay [4] (Homo sapiens); more than 50% in [5] (setting [12]).
As to `COc1cc(-c2ccc(/C=C(\C#N)C(=O)Nc3ccccc3)o2)c(OC)c2ccccc12` [Compound 4h, (E)-2-cyano-3-(5-(1,4-dimethoxynaphthalen-2-yl)furan-2-yl)-N-phenylacrylamide], the inhibition at 20 µM was 9.49 ± 0.16% in assay [1] (Homo sapiens, 20 μM); 19.53 ± 0.17% in assay [2] (Homo sapiens); 0.25 ± 0.13% in assay [3] (Homo sapiens); 11.5 ± 0.14% in [4] (Homo sapiens); 0.25 to 32.4% in [5] (setting [13]).
For the molecule `COc1cc(N2CCC(N(C)C)CC2)ccc1NC(=O)c1ccc(-c2cc(OC)c3ccccc3c2OC)o1` [Compound 8i, 5-(1,4-Dimethoxynaphthalen-2-yl)-N-(4-(4-(dimethylamino)piperidin-1-yl)-2-methoxyphenyl)furan-2-carboxamide], the inhibition at 20 µM in [1] (Homo sapiens, 20 μM) is 55.62 ± 0.12%; in [2] (Homo sapiens), 25.11 ± 0.05%; in [3] (Homo sapiens) it was 31.67 ± 0.07%; in assay [4] (Homo sapiens), 47.78 ± 0.19%; in [5] (setting [12]), more than 50%.
Regarding `C[C@H](NC(=O)/C(C#N)=C/c1cccc(Br)n1)c1ccccc1` [WP1066, reference compound], the IC50 in [1] (Homo sapiens, 48 h) was found to be 7.06 ± 1.17 µM; in assay [2] (Homo sapiens, PC-3, 48 h, 48 h), 1.2 ± 0.03 µM; in [3] (Homo sapiens, A549, 48 h, 48 h) it was 7.55 ± 0.06 µM; in assay [4] (Homo sapiens, HCT-116, 48 h), 7.22 ± 3.14 µM; in assay [6], 8.17 ± 0.16 µM; in assay [7] it was 24.1 ± 0.7 µM. Besides, the IC50 amounted to 4.66 ± 0.13 µM in assay [8], 4.36 ± 0.05 µM in [9] and 3.45 ± 0.41 µM in [10].
For `COc1cc(-c2ccc(/C=C(\C#N)C(=O)NCCN3CCOCC3)o2)c(OC)c2ccccc12` [Compound 4c, (E)-2-cyano-3-(5-(1,4-dimethoxynaphthalen-2-yl)furan-2-yl)-N-(2-morpholinoethyl)acrylamide], the inhibition at 20 µM in assay [1] (Homo sapiens, 20 μM) was 24.23 ± 0.01%; in [2] (Homo sapiens), 8.99 ± 0.09%; in [3] (Homo sapiens) it was 11.25 ± 0.05%; in assay [4] (Homo sapiens) it was 18.78 ± 0.04%; in assay [5] (setting [13]) it was 8.99 to 24.2%.
For the molecule `COC(=O)c1ccc(C2=CC(=O)c3ccccc3C2=O)o1` [Compound 6a, Methyl 5-(1,4-dioxo-1,4-dihydronaphthalen-2-yl)furan-2-carboxylate], the inhibition at 20 µM came out at 26.1 ± 0.66% in [1] (Homo sapiens, 20 μM); 6.93 ± 0.79% in assay [2] (Homo sapiens); 2.15 ± 0.37% in assay [3] (Homo sapiens); 17.67 ± 0.06% in [4] (Homo sapiens).
“(E)-2-cyano-3-(5-(1,4-dioxo-1,4-dihydronaphthalen-2-yl)furan-2-yl)-N-(3-(trifluoromethyl)phenyl)acrylamide [Compound 5g]”: the “Inhibition Rate (%) at 20 μM HeLa” value in assay [1] (20 μM) is on record as 27.98 ± 0.36%. In [2] (20 μM), the “Inhibition Rate (%) at 20 μM PC3” value was 11.20 ± 0.02%. The “Inhibition Rate (%) at 20 μM A549” value in assay [3] (20 μM) is recorded as 32.35 ± 0.95%. In assay [4] (20 μM), the “Inhibition Rate (%) at 20 μM HCT116” value was 28.25 ± 0.04%.
Take `N#C/C(=C\c1ccc(C2=CC(=O)c3ccccc3C2=O)o1)C(=O)N1CC2CCCCC2C1` (stereo not shown) [Compound 5f, (E)-3-(5-(1,4-dioxo-1,4-dihydronaphthalen-2-yl)furan-2-yl)-2-(octahydro-1H-isoindole-2-carbonyl)acrylonitrile]: the inhibition at 20 µM worked out at 1.9 ± 0.72% in [1] (Homo sapiens, 20 μM); 11.13 ± 0.03% in assay [2] (Homo sapiens); 13.9 ± 0.14% in [3] (Homo sapiens); 3.41 ± 0.26% in [4] (Homo sapiens).
For the molecule `NS(=O)(=O)c1cccc2c1C(=O)C=C(Nc1cccnc1)C2=O` [Ly-5], in assay [11], the IC50 was 0.5 to 1.4 µM.
For the molecule `COc1cc(-c2ccc(C(=O)NC(C)c3ccccc3)o2)c(OC)c2ccccc12` (stereo not shown) [Compound 8b, 5-(1,4-Dimethoxynaphthalen-2-yl)-N-(1-phenylethyl)furan-2-carboxamide], the inhibition at 20 µM is 19.33 ± 0.18% in assay [1] (Homo sapiens, 20 μM); 24.99 ± 0.19% in assay [2] (Homo sapiens); 7.87 ± 0.11% in assay [3] (Homo sapiens); 2.17 ± 0.02% in assay [4] (Homo sapiens).
